Source: the supplement of paper PMC11997997

Tests used:
[1] = test system: murine bone marrow-derived macrophages; assay: area under cytotoxicity dose-response curve (AUC (% cytotoxicity x dose, relative)); higher = more cytotoxic; details: duration: 6 days; dose range: 0.13-80 uM, 8 points
Method in brief: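 Cytotoxicity is given as the area under the dose–response curve, computed in GraphPad Prism version 10. Primary murine bone marrow-derived macrophages in opaque 384-well plates received an 8-point, 2.5-fold dilution series (final 80–0.13 μM) for 6 days at 37 °C in 5% CO2. Viability was measured by Promega's CellTiter-Glo luminescence assay, with percent cytotoxicity normalised to vehicle and positive control wells.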

[2] = test system: Mycobacterium tuberculosis CDC1551 (intracellular, in murine BMDM); assay: area under intracellular growth-inhibition dose-response curve (AUC (% inhibition x dose, relative)); higher = more potent; details: duration: 6 days; dose range: 0.13-80 uM, 8 points
Method in brief: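 Luciferase-expressing M. tuberculosis CDC1551 was used at multiplicity of infection 1 for 1 h to infect primary murine bone marrow-derived macrophages in 384-well opaque plates, 24 h after seeding. Treatment followed for 6 days with an 8-dose, 2.5-fold series at final concentrations of 80–0.13 μM. GraphPad Prism was used to calculate the area under the growth-inhibition dose–response curve from Bright-Glo luciferin readings normalised to a reference drug control and the lowest-concentration wells.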

| SMILES | area under cytotoxicity dose-response curve [1] | area under intracellular growth-inhibition dose-response curve [2] |
| --- | --- | --- |
| O=C(c1ccc([N+](=O)[O-])o1)N1CCN(Cc2ccccc2)CC1 | 4.42 | 151 |
| C/C(=N\NC(N)=S)c1ccncc1 | 113 | 138 |
| O=C(OCC(=O)C12CC3CC(CC(C3)C1)C2)c1ccc(CO)cc1 | < 0 | 124 |
| CC(C)Cn1c([N+](=O)[O-])nc2c1c(=O)[nH]c(=O)n2C | 40.1 | 5.16 |
| O=C(c1ccc(Cl)c(Cl)c1)N1CCCC1 | 52.5 | 86.7 |
| Nc1ccc(S(=O)(=O)Nc2cnc3ccccc3n2)cc1 | < 0 | 156 |
| COc1c(/C=N/NC(=O)c2ccncc2)c(CCN(C)C(C)=O)cc2c1OCO2 | 96.3 | 252 |
| CC(=O)Nc1ccc(-c2c(C)cc3oc(=O)cc(-c4ccccc4)c3c2C)cc1 | 113 | 221 |
| O=C(OCC(=O)c1ccc(Cl)s1)c1cncc(Br)c1 | 95.6 | 0.884 |
| CC(=O)O[C@H]1C[C@@]2(C)[C@@H](C[C@@H](O)[C@H]3[C@@]4(C)CC[C@@H](O)[C@@H](C)[C@@H]4CC[C@@]32C)/C1=C(\CCC=C(C)C)C(=O)[O-].[Na+] | 74.7 | 182 |
| Cc1nc(SCC(=O)NC2CCCCC2)nc(O)c1C | 17.5 | 30.2 |
| O=C(N/N=C/c1ccc([N+](=O)[O-])o1)c1cc2ccccc2o1 | 43.2 | 106 |
| CCCCCC(=O)N1CCCC1 | 20.6 | 139 |
| CC(NC(=O)c1ccccc1F)C12C[C@H]3C[C@@H](C1)C[C@@H](C2)C3 (stereo not given in full) | 18.2 | 234 |
| CC(=O)Nc1ccc(/C(C)=N/NC(=O)c2ccncc2)cc1 | 0.755 | 250 |
| CCN(CC)CCN(C(=O)C1=COCCO1)c1nc2cc(C)cc(C)c2s1.Cl | 22.7 | 227 |
| CC(=O)c1c(C)[n+]([O-])c2ccccc2[n+]1[O-] | 17.5 | 84.7 |
| O=C(NCc1ccc(F)cc1)c1cc2ccccc2o1 | 48.5 | 254 |
| Cc1c(C(=O)N(C)C)sc(NC(=O)c2cccc([N+](=O)[O-])c2)c1C#N | 51.5 | 13.8 |
| C=C[C@]1(C)C[C@@H](OC(=O)CSCCN(CC)CC)[C@]2(C)C(C)CC[C@]3(CCC(=O)[C@H]32)[C@@H](C)[C@@H]1O.O=C(O)/C=C/C(=O)O (stereo not given in full) | 89.1 | 199 |

| SMILES | area under cytotoxicity dose-response curve [1] | area under intracellular growth-inhibition dose-response curve [2] |
| --- | --- | --- |
| Cc1ccc(C(=O)N2CCN(c3ccc(NC(=S)NC(=O)Cc4ccccc4)cc3)CC2)cc1 | 53.7 | 212 |
| Cc1nc(SCC(=O)NCc2ccc3c(c2)OCO3)nc(C)c1C | < 0 | 54.6 |
| CC(NC(=O)c1cc([N+](=O)[O-])cc([N+](=O)[O-])c1)C1CC2CCC1C2 (stereo not given) | 64.9 | 257 |
| Cc1cs/c(=N\C(=O)c2ccccc2)n1C | 57.5 | 102 |
| O=C(NC1CCCCC1)c1ccc2snnc2c1 | < 0 | 156 |
| O=C(NN=C1CCCCCC1)c1ccncc1 | 11.3 | 273 |
| O=C(NCC1CCCCC1)c1ccc(Cl)nc1 | 2.72 | 258 |
| O=C(COc1ccc(Cl)cc1)NNC(=O)c1ccncc1 | 9.09 | 274 |
| C/C(=N/NC(=O)c1ccncc1)c1ccc(NC(=O)c2ccccc2)cc1 | 28.2 | 240 |
| CCCCNC(=O)Cc1ccc(C)cc1 | 80.9 | 115 |
| Cc1cccc(NC(=O)NC2CCCCCCC2)c1 | 95.3 | 123 |
| O=C(CC12CC3CC(CC(C3)C1)C2)N1CCCC1 | 75.6 | 216 |
| Cc1ccc2c(c1)sc(-c1ccc(N(C)C)cc1)[n+]2C.[I-] | 125 | < 0 |
| CN1/C(=C/C(=O)c2cccs2)Sc2ccccc21 | 48 | 139 |
| O=C(NCCC1CCCC1)c1cccs1 | 13.7 | 200 |
| Nc1c2c(nc3sc4c(c13)CCCC4)CCCC2 | 77.7 | 125 |
| N=c1c2c(-c3ccccc3)c(-c3ccccc3)n(Cc3ccccc3)c2ncn1CCCn1ccnc1 | 49.3 | 48.2 |
| Br.CCCc1cc(-c2nc(-c3ccc(Cl)cc3)cs2)ccn1 | 78.3 | 163 |
| C/C(=N/NC(=O)c1ccncc1)c1ccc2c(c1)OCO2 | 13.8 | 257 |
| BrC(=C\c1ccccc1)/C=N/n1cnnc1 | 97.5 | 5.21 |

| SMILES | area under cytotoxicity dose-response curve [1] | area under intracellular growth-inhibition dose-response curve [2] |
| --- | --- | --- |
| Cc1ccc(C2=NN(C(=O)CCl)C(c3ccco3)C2)o1 (stereo not given) | 73.1 | 88.6 |
| CC1CCCN(C(=O)c2ccc(CNc3c(N4CCCCC4)c(=O)c3=O)cc2)C1 (stereo not given) | 23 | 271 |
| CCN(CC)S(=O)(=O)c1ccc2c(c1)c(=O)c(C(=O)NCCc1ccccc1)cn2C | 22.5 | 157 |
| COC(=O)c1c(NC(=O)CN2C(=O)NC3(CCCCC3C)C2=O)sc2c1CCC2 (stereo not given) | 4.39 | 78.7 |
| CC(=O)n1cc(/C=N/NC(N)=S)c2ccccc21 | < 0 | 273 |
| COc1ccc(/C=N/NC(N)=S)cc1 | 4.45 | 258 |
| CSCCC(NC(=O)c1ccccc1Br)C(=O)NNC(=O)c1ccncc1 (stereo not given) | 12.7 | 244 |
| COCC(=O)Nc1nnc(Cc2ccc(OC)cc2)s1 | 21.6 | 159 |
| Cc1ccc(-c2nnc(NC(=O)c3ccc([N+](=O)[O-])o3)o2)c(C)c1 | 91.5 | 78.2 |
| S=C(Nc1ccc(N2CCOCC2)cc1)Nc1ccc2snnc2c1 | 57.1 | 235 |
| CC[n+]1c(/C=C/N(C)c2ccccc2)n(-c2ccccc2)c2ccc(-c3nc4ccccc4s3)cc21.[I-] | 146 | 162 |
| CC(C)(C)C(=O)/C(=C/c1ccncc1)n1cncn1 | 106 | 32 |
| COc1cccc(NC(=O)NC2CCCCCCC2)c1 | 103 | 162 |
| CCn1c(SCc2ccc(C(=O)OC)o2)nnc1-c1c[nH]c2ccccc12 | 20.1 | 117 |
| CO[C@H]1C=CO[C@@]2(C)Oc3c(C)c(O)c4c(O)c(c(C=NN5CCN(C)CC5)c(O)c4c3C2=O)NC(=O)C(C)=CC=C[C@H](C)[C@H](O)[C@@H](C)[C@@H](O)[C@@H](C)[C@H](OC(C)=O)[C@@H]1C | 92.8 | 275 |
| CC[C@H]1OC(=O)[C@H](C)[C@@H](O[C@H]2C[C@@](C)(OC)[C@@H](O)[C@H](C)O2)[C@H](C)[C@@H](O[C@@H]2O[C@H](C)C[C@H](N(C)C)[C@H]2O)[C@](C)(OC)C[C@@H](C)C(=O)[C@H](C)[C@@H](O)[C@]1(C)O | 48.5 | 246 |
| NC(=S)N/N=C/c1cccc(Br)c1 | 35 | 270 |
| CC(C)Oc1ccc(/C=N/NC(N)=S)cc1 | 17.8 | 275 |
| COc1c(N2C[C@@H]3CCCN[C@@H]3C2)c(F)cc2c(=O)c(C(=O)O)cn(C3CC3)c12.Cl | 62.8 | 269 |
| O=C(CNC(=O)c1ccc([N+](=O)[O-])cc1)N/N=C\c1ccc(OC(=O)c2ccccc2)cc1 | < 0 | 109 |
